# Source: ChEMBL document CHEMBL4699613, “Synthesis and biological evaluation of indolylglyoxylamide bisphosphonates, antimitotic microtubule-targeting derivatives of indibulin with improved aqueous solubility” (Bioorg Med Chem Lett, 2020)
# Tests used:
# [1] = Aqueous solubility of the compound at physiological pH by H-NMR analysis; assay type: physicochemical; settings: aqueous solution
# [2] = test system: BXPC-3; experiment: Cytotoxicity against human BXPC-3 cells assessed as cell growth inhibition measured after 72 hrs by MTT assay; assay type: functional, cell-based; settings: BXPC-3, 72 h
# [3] = test system: CFPAC-1; experiment: Cytotoxicity against human CFPAC-1 cells assessed as cell growth inhibition measured after 72 hrs by MTT assay; assay type: functional, cell-based; settings: CFPAC-1, 72 h
# [4] = test system: PANC-1; experiment: Cytotoxicity against human PANC-1 cells assessed as cell growth inhibition measured after 72 hrs by MTT assay; assay type: functional, cell-based; settings: PANC-1, 72 h
# [5] = test system: HeLa; experiment: Cytotoxicity against human HeLa cells assessed as cell growth inhibition; assay type: functional, cell-based
# [6] = test system: SiHa; experiment: Cytotoxicity against human SiHa cells assessed as cell growth inhibition; assay type: functional, cell-based
# [7] = test system: Ca-Ski; experiment: Cytotoxicity against human Ca-Ski cells assessed as cell growth inhibition; assay type: functional, cell-based
# [8] = test system: Paracentrotus lividus; experiment: Antimitotic activity against sea urchin embryo assessed as cleavage alteration measured 2.5 to 5.5 hrs post-fertilization using compound stored for 1 hr in 96% EtOH at room temperature by light microscopy analysis; assay type: functional; settings: time hrs 2.5-5.5
# [9] = test system: Paracentrotus lividus; experiment: Induction of microtubule destabilization in sea urchin embryo assessed as embryo spinning measured after 0.5 to 20 hrs; assay type: tissue-based; settings: time hrs 0.5-20
# [10] = test system: Paracentrotus lividus; experiment: Antimitotic activity against sea urchin embryo assessed as cleavage alteration measured 2.5 to 5.5 hrs post-fertilization using compound stored for 2 days in 96% EtOH at room temperature by light microscopy analysis; assay type: functional; settings: time hrs 2.5-5.5
# [11] = test system: Paracentrotus lividus; experiment: Antimitotic activity against sea urchin embryo assessed as cleavage alteration measured 2.5 to 5.5 hrs post-fertilization using compound stored for 4 days in 96% EtOH at room temperature by light microscopy analysis; assay type: functional; settings: time hrs 2.5-5.5
# [12] = test system: Paracentrotus lividus; experiment: Antimitotic activity against sea urchin embryo assessed as cleavage alteration measured 2.5 to 5.5 hrs post-fertilization using compound stored for 1 month in 96% EtOH at room temperature by light microscopy analysis; assay type: functional; settings: time hrs 2.5-5.5
# [13] = test system: Paracentrotus lividus; experiment: Antimitotic activity against sea urchin embryo assessed as cleavage arrest measured 2.5 to 5.5 hrs post-fertilization using compound stored for 1 hr in 96% EtOH at room temperature by light microscopy analysis; assay type: functional; settings: time hrs 2.5-5.5
# [14] = test system: Paracentrotus lividus; experiment: Antimitotic activity against sea urchin embryo assessed as cleavage arrest measured 2.5 to 5.5 hrs post-fertilization using compound stored for 2 days in 96% EtOH at room temperature by light microscopy analysis; assay type: functional; settings: time hrs 2.5-5.5
# [15] = test system: Paracentrotus lividus; experiment: Antimitotic activity against sea urchin embryo assessed as cleavage arrest measured 2.5 to 5.5 hrs post-fertilization using compound stored for 4 days in 96% EtOH at room temperature by light microscopy analysis; assay type: functional; settings: time hrs 2.5-5.5
# [16] = test system: Paracentrotus lividus; experiment: Antimitotic activity against sea urchin embryo assessed as cleavage arrest measured 2.5 to 5.5 hrs post-fertilization using compound stored for 1 month in 96% EtOH at room temperature by light microscopy analysis; assay type: functional; settings: time hrs 2.5-5.5
# [17] = test system: Paracentrotus lividus; experiment: Antimitotic activity against sea urchin embryo assessed as cleavage alteration measured 2.5 to 6 hrs post-fertilization by light microscopy analysis; assay type: functional; settings: time hrs 2.5-6
# [18] = test system: Paracentrotus lividus; experiment: Antimitotic activity against sea urchin embryo assessed as cleavage arrest measured 2.5 to 6 hrs post-fertilization by light microscopy analysis; assay type: functional; settings: time hrs 2.5-6
# [19] = test system: A549; experiment: Cytotoxicity against human A549 cells assessed as cell growth inhibition; assay type: functional, cell-based
# [20] = test system: HCT-116; experiment: Cytotoxicity against human HCT-116 cells assessed as cell growth inhibition; assay type: functional, cell-based
# [21] = test system: A-375; experiment: Cytotoxicity against human A-375 cells assessed as cell growth inhibition; assay type: functional, cell-based
# [22] = test system: SK-OV-3; experiment: Cytotoxicity against human SK-OV-3 cells assessed as cell growth inhibition; assay type: functional, cell-based
# [23] = test system: PC-3; experiment: Cytotoxicity against human PC-3 cells assessed as cell growth inhibition; assay type: functional, cell-based
# [24] = test system: DU-145; experiment: Cytotoxicity against human DU-145 cells assessed as cell growth inhibition; assay type: functional, cell-based
# [25] = test system: T47D; experiment: Cytotoxicity against human T47D cells assessed as cell growth inhibition; assay type: functional, cell-based
# [26] = test system: HFF; experiment: Cytotoxicity against human HFF cells assessed as cell growth inhibition; assay type: cell-based
# [27] = Selectivity ratio of IC50 for human HFF cells to IC50 for human A-375 cells assessed as cell growth inhibition
# [28] = test system: MCF7; experiment: Cytotoxicity against human MCF7 cells assessed as cell growth inhibition measured after 24 to 48 hrs by SRB assay; assay type: functional, cell-based
# [29] = test system: Paracentrotus lividus; experiment: Antimitotic activity against sea urchin embryo assessed as cleavage alteration measured 3 to 6 hrs post-fertilization by light microscopy analysis; assay type: functional; settings: time hrs 3-6
# [30] = test system: Paracentrotus lividus; experiment: Antimitotic activity against sea urchin embryo assessed as cleavage arrest measured 3 to 6 hrs post-fertilization by light microscopy analysis; assay type: functional; settings: time hrs 3-6
# [31] = Aggregation property of the compound in water; assay type: physicochemical; settings: buffer
# [32] = test system: Paracentrotus lividus; experiment: Antimitotic activity against sea urchin embryo assessed as cleavage alteration measured 2.5 to 5.5 hrs post-fertilization using compound stored for 13 hrs in 96% EtOH at room temperature by light microscopy analysis; assay type: functional; settings: time hrs 2.5-5.5
# [33] = test system: Paracentrotus lividus; experiment: Antimitotic activity against sea urchin embryo assessed as cleavage alteration measured 2.5 to 5.5 hrs post-fertilization using compound stored for 2.5 days in 96% EtOH at room temperature by light microscopy analysis; assay type: functional; settings: time hrs 2.5-5.5
# [34] = test system: Paracentrotus lividus; experiment: Antimitotic activity against sea urchin embryo assessed as cleavage alteration measured 2.5 to 5.5 hrs post-fertilization using compound stored for 4.5 days in 96% EtOH at room temperature by light microscopy analysis; assay type: functional; settings: time hrs 2.5-5.5
# [35] = test system: Paracentrotus lividus; experiment: Antimitotic activity against sea urchin embryo assessed as cleavage arrest measured 2.5 to 5.5 hrs post-fertilization using compound stored for 13 hrs in 96% EtOH at room temperature by light microscopy analysis; assay type: functional; settings: time hrs 2.5-5.5
# [36] = test system: Paracentrotus lividus; experiment: Antimitotic activity against sea urchin embryo assessed as cleavage arrest measured 2.5 to 5.5 hrs post-fertilization using compound stored for 2.5 days in 96% EtOH at room temperature by light microscopy analysis; assay type: functional; settings: time hrs 2.5-5.5
# [37] = test system: Paracentrotus lividus; experiment: Antimitotic activity against sea urchin embryo assessed as cleavage arrest measured 2.5 to 5.5 hrs post-fertilization using compound stored for 4.5 days in 96% EtOH at room temperature by light microscopy analysis; assay type: functional; settings: time hrs 2.5-5.5
# [38] = Cytotoxicity against human KKU-100 cells assessed as cell growth inhibition after 48 hrs; assay type: functional, cell-based; settings: KKU100, 48 h
compound,measurement,setting,value
COc1ccc(NC(=O)C(=O)c2cn(CC(P(=O)([O-])[O-])P(=O)([O-])[O-])c3ccccc23)cc1.[Na+].[Na+].[Na+].[Na+],solubility,[1],10000 µg/mL
O=P(O)(O)C(O)(Cn1ccnc1)P(=O)(O)O [ZOLEDRONIC ACID],IC50,[2],10000 nM
same,IC50,[3],10000 nM
same,IC50,[4],10000 nM
same,IC50,[5],10000 nM
same,IC50,[6],10000 nM
same,IC50,[7],10000 nM
CCOP(=O)(OCC)C(Cn1cc(C(=O)C(=O)Nc2ccc(OC)cc2)c2ccccc21)P(=O)(OCC)OCC,EC,[8],0.5 µM
same,EC,[9],0.2 µM
same,EC,[10],0.02 µM
same,EC,[11],0.005 µM
same,EC,[12],0.002 µM
same,EC,[13],0.2 µM
same,EC,[14],0.1 µM
same,EC,[15],0.02 µM
same,EC,[16],0.005 µM
CCOP(=O)(OCC)C(Cn1cc(C(=O)C(=O)O)c2ccc(F)cc21)P(=O)(OCC)OCC,EC,[17],>4 µM
same,EC,[18],>4 µM
same,EC,[9],> 4 µM
CCOP(=O)(OCC)C(Cn1cc(C(=O)C(=O)Nc2cccc(OC)c2)c2ccc(F)cc21)P(=O)(OCC)OCC,EC,[8],1 µM
same,EC,[9],> 4 µM
same,EC,[13],>4 µM
COc1ccc(NC(=O)C(=O)c2cn(CC(P(=O)(O)O)P(=O)(O)O)c3ccccc23)cc1 [listing 1 of 2 here],EC,[17],0.001 µM
same,EC,[18],0.002 µM
same,IC50,[19],223 nM
same,IC50,[20],222 nM
same,IC50,[21],34 nM
same,IC50,[22],3230 nM
same,IC50,[23],7540 nM
same,IC50,[24],478 nM
same,IC50,[25],658 nM
same,IC50,[26],2390 nM
same,Ratio IC50,[27],70
O=P(O)(O)C(O)(Cc1cccnc1)P(=O)(O)O [RISEDRONIC ACID],IC50,[28],248000 nM
COc1ccc(NC(=O)C(=O)c2c[nH]c3cc(F)ccc23)cc1,EC,[9],1 µM
same,EC,[29],0.001 µM
same,EC,[30],0.005 µM
NCCCC(O)(P(=O)(O)O)P(=O)(O)O [ALENDRONIC ACID],IC50,[28],69500 nM
Nc1ncnc2c1ccn2[C@@H]1O[C@H](CO)[C@@H](O)[C@H]1O [TUBERCIDIN],IC50,[19],44 nM
same,IC50,[20],82 nM
same,IC50,[21],43 nM
same,IC50,[22],131 nM
same,IC50,[23],76 nM
same,IC50,[24],256 nM
same,IC50,[25],13 nM
same,IC50,[26],790 nM
COc1cccc(NC(=O)C(=O)c2c[nH]c3cc(F)ccc23)c1,EC,[9],> 4 µM
same,EC,[29],0.2 µM
same,EC,[30],>4 µM
COc1ccc(NC(=O)C(=O)c2cn(CC(P(=O)(O)O)P(=O)(O)O)c3ccccc23)cc1 [listing 2 of 2 here],EC,[9],0.005 µM
CCOP(=O)(OCC)C(Cn1cc(C(=O)C(=O)Nc2ccc3c(c2)OCCO3)c2ccccc21)P(=O)(OCC)OCC,EC,[8],0.5 µM
same,EC,[9],0.1 µM
same,EC,[13],0.2 µM
O=C(Nc1ccncc1)C(=O)c1cn(Cc2ccc(Cl)cc2)c2ccccc12 [INDIBULIN],EC,[17],0.01 µM
same,EC,[18],0.02 µM
same,EC,[9],0.1 µM
same,IC50,[19],398 nM
same,IC50,[20],50 nM
same,IC50,[22],200 nM
same,IC50,[23],40 nM
same,IC50,[24],50 nM
same,IC50,[25],40 nM
same,CAC,[31],0.00039 mg/mL
O=C(Nc1ccc2c(c1)OCCO2)C(=O)c1c[nH]c2ccccc12,EC,[9],0.02 µM
same,EC,[29],0.002 µM
same,EC,[30],0.005 µM
O=C(Nc1ccc2c(c1)OCCO2)C(=O)c1c[nH]c2cc(F)ccc12,EC,[9],0.5 µM
same,EC,[29],0.005 µM
same,EC,[30],0.02 µM
CCOP(=O)(OCC)C(Cn1cc(C(=O)C(=O)Nc2ccc3c(c2)OCCO3)c2ccc(F)cc21)P(=O)(OCC)OCC,EC,[8],0.5 µM
same,EC,[9],0.1 µM
same,EC,[32],0.02 µM
same,EC,[33],<0.02 µM
same,EC,[34],<0.01 µM
same,EC,[13],0.2 µM
same,EC,[35],0.05 µM
same,EC,[36],0.02 µM
same,EC,[37],0.01 µM
CCOP(=O)(OCC)C(Cn1cc(C(=O)C(=O)Nc2ccc(OC)cc2)c2ccc(F)cc21)P(=O)(OCC)OCC,EC,[8],0.5 µM
same,EC,[9],0.5 µM
same,EC,[13],0.2 µM
NCCC(O)(P(=O)(O)O)P(=O)(O)O [PAMIDRONIC ACID],IC50,[28],22900 nM
same,IC50,[38],147000 nM
COc1ccc(NC(=O)C(=O)c2c[nH]c3ccccc23)cc1,EC,[9],0.2 µM
same,EC,[29],0.001 µM
same,EC,[30],0.005 µM
